# Several values for one entry are separate records, joined by “and”; a condition that tells them apart may be missing. Equal values may be shown once.
# Key:
# [1] = molecular target: Glycogen synthase kinase-3 alpha (Homo sapiens, UniProt P49840); assay: TR-FRET Assay
# How it was run: (§1)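 30 min preinc w/ cpd in assay buffer → kinase rxn → EDTA quench → add detection mix (40 nM SA-d2, 2 nM Tb-pSer641 Ab) → TR-FRET read.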
# [2] = molecular target: Glycogen synthase kinase-3 beta (Homo sapiens, UniProt P49841); assay: TR-FRET Assay
# Glycogen synthase kinase-3 beta, sequence (P49841 whole entry): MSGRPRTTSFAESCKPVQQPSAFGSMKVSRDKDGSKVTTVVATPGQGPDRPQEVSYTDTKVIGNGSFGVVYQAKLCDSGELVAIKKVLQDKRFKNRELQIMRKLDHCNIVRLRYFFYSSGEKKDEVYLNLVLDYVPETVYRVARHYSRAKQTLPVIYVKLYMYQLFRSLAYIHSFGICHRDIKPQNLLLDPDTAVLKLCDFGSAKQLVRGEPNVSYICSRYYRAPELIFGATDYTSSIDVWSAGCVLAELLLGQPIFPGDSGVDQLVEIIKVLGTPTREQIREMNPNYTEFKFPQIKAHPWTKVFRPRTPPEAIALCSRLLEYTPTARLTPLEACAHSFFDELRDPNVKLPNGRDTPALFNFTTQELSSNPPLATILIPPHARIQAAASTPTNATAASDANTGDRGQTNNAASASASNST
# How it was run: as §1
# Glycogen synthase kinase-3 alpha, sequence (P49840 whole entry): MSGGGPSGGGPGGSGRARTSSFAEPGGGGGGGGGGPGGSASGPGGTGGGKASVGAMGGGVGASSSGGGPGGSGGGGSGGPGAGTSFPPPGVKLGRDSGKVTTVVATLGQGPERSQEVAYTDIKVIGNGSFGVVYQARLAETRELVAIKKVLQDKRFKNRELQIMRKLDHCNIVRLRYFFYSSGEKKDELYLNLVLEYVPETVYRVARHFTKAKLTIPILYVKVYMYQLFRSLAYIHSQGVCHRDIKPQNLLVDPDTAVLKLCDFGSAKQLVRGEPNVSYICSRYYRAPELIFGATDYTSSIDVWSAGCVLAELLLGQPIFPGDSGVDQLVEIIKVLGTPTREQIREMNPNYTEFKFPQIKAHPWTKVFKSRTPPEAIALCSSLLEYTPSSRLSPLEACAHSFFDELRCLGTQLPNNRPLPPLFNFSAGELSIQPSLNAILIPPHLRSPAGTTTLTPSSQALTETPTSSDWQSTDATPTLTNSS
SMILES,IC50 [1],IC50 [2]
"CC1(C)CC(=O)C2=C(C1)NC1N=NC=C1C21CCCN(CC(F)F)CC1 (stereo not drawn) [US20250313563, Compound 889574]",0.1 to 1 µM,0.1 to 1 µM
"CC(=O)N1CCCC2(CC1)C1=CN=NC1NC1=C2C(=O)CC(C)(C)C1 (stereo not drawn) [US20250313563, Compound 889575]",0.1 to 1 µM,1 to 5 µM
"CC1(C)CC(=O)C2=C(C1)NC1N=NC=C1C21CCCN(CC(F)(F)F)CC1 (stereo not drawn) [US20250313563, Compound 889576]",0.1 to 1 µM,0.1 to 1 µM
"CC1(C)CC(=O)C2=C(C1)NC1N=NC=C1C21CCCN(C(=O)c2ccccc2)CC1 (stereo not drawn) [US20250313563, Compound 889577]",1 to 5 µM,1 to 5 µM
"CC1(C)CC(=O)C2=C(C1)NC1N=NC=C1C21CCCN(S(=O)(=O)c2ccccc2)CC1 (stereo not drawn) [US20250313563, Compound 889578]",< 0.1 µM,< 0.1 µM
"CCC1(c2cccc(S(=O)(=O)CC)c2)C2=CN=NC2NC2=C1C(=O)CC(C)(C)C2 (stereo not drawn) [US20250313563, Compound 889579]",< 0.1 µM,< 0.1 µM
"CCC1(c2cccc(N(C)C(=O)COC)c2)C2=CN=NC2NC2=C1C(=O)CC(C)(C)C2 (stereo not drawn) [US20250313563, Compound 889580]",< 0.1 µM,0.1 to 1 µM
"CC[C@]1(c2cccc(N3CCOCC3)c2)C2=C(CC(C)(C)CC2=O)NC2N=NC(C)=C21 (stereo partly drawn) [US20250313563, Compound 889581]",< 0.1 µM,< 0.1 µM
"CC[C@@]1(c2cccc(N3CCOCC3)c2)C2=C(CC(C)(C)CC2=O)NC2N=NC(C)=C21 (stereo partly drawn) [US20250313563, Compound 889582]",0.1 to 1 µM,1 to 5 µM
"CC(=O)N1CC[C@]2(C1)C1=C(N=NC1)NC1=C2C(=O)CC(C)(C)C1 [US20250313563, Compound 889583]",1 to 5 µM,> 5 µM
"CC(=O)N1CC[C@@]2(C1)C1=C(N=NC1)NC1=C2C(=O)CC(C)(C)C1 [US20250313563, Compound 889584]",0.1 to 1 µM,1 to 5 µM
"CCC1(c2cccc(N(C)c3ccnn3C)c2)C2=CN=NC2NC2=C1C(=O)CC(C)(C)C2 (stereo not drawn) [US20250313563, Compound 889604]",0.1 to 1 µM,1 to 5 µM
"CCC1(c2cccc(C3CC4CCC(C3)O4)c2)C2=CN=NC2NC2=C1C(=O)CC(C)(C)C2 (stereo not drawn) [US20250313563, Compound 889622]",0.1 to 1 µM,0.1 to 1 µM
"CC[C@]1(c2cccc(N3CCC3)c2)C2=CN=NC2NC2=C1C(=O)CC(C)(C)C2 (stereo partly drawn) [US20250313563, Compound 889631]",0.1 to 1 µM,0.1 to 1 µM
"CC[C@@]1(c2cccc(N3CCC3)c2)C2=CN=NC2NC2=C1C(=O)CC(C)(C)C2 (stereo partly drawn) [US20250313563, Compound 889632]",> 5 µM,> 5 µM
"CCC1(c2cccc(N3CCCc4ncccc43)c2)C2=CN=NC2NC2=C1C(=O)CC(C)(C)C2 (stereo not drawn) [US20250313563, Compound 889639]",< 0.1 µM,< 0.1 µM and 0.1 to 1 µM
"CC1(C)CC(=O)C2=C(C1)NC1N=NC=C1[C@]21C[C@H](c2ccncc2)C1 (stereo partly drawn) [US20250313563, Compound 889664]",< 0.1 µM,0.1 to 1 µM
"CC1(C)CC(=O)C2=C(C1)NC1=C(CN=N1)[C@]21C[C@@H](c2ccncc2)C1 [US20250313563, Compound 889665]",< 0.1 µM,< 0.1 µM and 0.1 to 1 µM
"CCC1(c2cccc(N(C(C)=O)C(C)C)c2)C2=CN=NC2NC2=C1C(=O)CC(C)(C)C2 (stereo not drawn) [US20250313563, Compound 893305]",< 0.1 µM,< 0.1 µM
"CCC1(c2cccc(N(CCOC)C(C)=O)c2)C2=CN=NC2NC2=C1C(=O)CC(C)(C)C2 (stereo not drawn) [US20250313563, Compound 893306]",< 0.1 µM,< 0.1 µM
"O=C1CC2(CCCCC2)CC2=C1C1(CCOCC1)C1=C(N=NC1)N2 [US20250313563, Compound 893307]",< 0.1 µM,0.1 to 1 µM
"O=C1CC2(CCCC2)CC2=C1C1(CCOCC1)C1=C(N=NC1)N2 [US20250313563, Compound 893308]",< 0.1 µM,0.1 to 1 µM
"O=C1CC(c2ccccc2)CC2=C1C1(CCOCC1)C1=C(N=NC1)N2 (stereo not drawn) [US20250313563, Compound 893309]",0.1 to 1 µM,1 to 5 µM
"COc1ccccc1S(=O)(=O)N1CCC2(CC1)C1=C(N=NC1)NC1=C2C(=O)CC(C)(C)C1 [US20250313563, Compound 893310]",< 0.1 µM,< 0.1 µM and 0.1 to 1 µM
"CC1(C)CC(=O)C2=C(C1)NC1=C(CN=N1)C21CCN(S(=O)(=O)c2ccc(F)cc2)CC1 [US20250313563, Compound 893311]",< 0.1 µM and 0.1 to 1 µM,< 0.1 µM and 1 to 5 µM

SMILES,IC50 [1],IC50 [2]
"CC1(C)CC(=O)C2=C(C1)NC1=C(CN=N1)C21CCC2(CC2)CC1 [US20250313563, Compound 893312]",< 0.1 µM,< 0.1 µM
"CN1CCCC2(CC1)C1=C(N=NC1)NC1=C2C(=O)CC(C)(C)C1 (stereo not drawn) [US20250313563, Compound 893313]",> 5 µM,> 5 µM
"CC(=O)N1CC2(C1)C1=C(N=NC1)NC1=C2C(=O)CC(C)(C)C1 [US20250313563, Compound 893314]",1 to 5 µM,> 5 µM
"CC1(C)CC(=O)C2=C(C1)NC1=C(CN=N1)C21CN(C(=O)c2ccccc2)C1 [US20250313563, Compound 893315]",> 5 µM,> 5 µM
"C[C@@H]1C[C@H](C)C(=O)C2=C1NC1=C(CN=N1)C21CCOCC1 [US20250313563, Compound 893316]",< 0.1 µM,0.1 to 1 µM
"C[C@H]1CCC[C@@]2(C1)C1=C(N=NC1)NC1=C2C(=O)CC(C)(C)C1 [US20250313563, Compound 893318]",0.1 to 1 µM,0.1 to 1 µM
"C[C@H]1CCC[C@]2(C1)C1=C(N=NC1)NC1=C2C(=O)CC(C)(C)C1 [US20250313563, Compound 893319]",0.1 to 1 µM,0.1 to 1 µM
"C[C@@H]1CCC[C@]2(C1)C1=C(N=NC1)NC1=C2C(=O)CC(C)(C)C1 [US20250313563, Compound 893320]",< 0.1 µM,< 0.1 µM
"CC[C@]1(c2cc(-c3ccncc3)ccc2C)C2=CN=NC2NC2=C1C(=O)CC(C)(C)C2 (stereo partly drawn) [US20250313563, Compound 893323]",0.1 to 1 µM,0.1 to 1 µM
"CC[C@@]1(c2cc(-c3ccncc3)ccc2F)C2=CN=NC2NC2=C1C(=O)CC(C)(C)C2 (stereo partly drawn) [US20250313563, Compound 893324]",1 to 5 µM,> 5 µM
"CC1(C)CC(=O)C2=C(C1)NC1=C(CN=N1)C21CCS(=O)(=O)CC1 [US20250313563, Compound 896013]",0.1 to 1 µM,0.1 to 1 µM
"CCC1(c2cccc(C(F)(F)F)c2)C2=CN=NC2NC2=C1C(=O)N(Cc1ccccc1)CC2 (stereo not drawn) [US20250313563, Compound 897749]",0.1 to 1 µM,> 5 µM
"C[C@@H]1CC[C@@]2(C1)C1=C(N=NC1)NC1=C2C(=O)CC(C)(C)C1 [US20250313563, Compound 897750]",< 0.1 µM,< 0.1 µM
"C[C@H]1CC[C@]2(C1)C1=C(N=NC1)NC1=C2C(=O)CC(C)(C)C1 [US20250313563, Compound 897751]",< 0.1 µM,0.1 to 1 µM
"CC1(C)CC(=O)C2=C(C1)NC1=C(CN=N1)C21Cc2ccccc2C1 [US20250313563, Compound 897752]",< 0.1 µM,0.1 to 1 µM
"CC1(C)CC(=O)C2=C(C1)NC1=C(CN=N1)[C@@]21CCOC2(CCC2)C1 [US20250313563, Compound 897755]",1 to 5 µM,1 to 5 µM
"CC1(C)CC(=O)C2=C(C1)NC1=C(CN=N1)[C@]21CCOC2(CCC2)C1 [US20250313563, Compound 897756]",0.1 to 1 µM,0.1 to 1 µM
"C[C@@H]1C[C@@]2(CCO1)C1=C(N=NC1)NC1=C2C(=O)CC(C)(C)C1 [US20250313563, Compound 899559]",0.1 to 1 µM,1 to 5 µM
"C[C@H]1C[C@]2(CCO1)C1=C(N=NC1)NC1=C2C(=O)CC(C)(C)C1 [US20250313563, Compound 899560]",0.1 to 1 µM,1 to 5 µM
"CC1(C(F)(F)F)CC(=O)C2=C(C1)NC1=C(CN=N1)C21CCOCC1 (stereo not drawn) [US20250313563, Compound 901458]",0.1 to 1 µM,0.1 to 1 µM
"O=C1C2=C(NC3N=NC=C3C23CCOCC3)C2CCC1C2 (stereo not drawn) [US20250313563, Compound 901464]",0.1 to 1 µM,0.1 to 1 µM
"CC1(C)CC(=O)C2=C(C1)NC1=C(CN=N1)C21CCN(S(=O)(=O)c2ccccc2F)CC1 [US20250313563, Compound 901465]",< 0.1 µM,< 0.1 µM and 0.1 to 1 µM
"CC1(C)CC(=O)C2=C(C1)NC1=C(CN=N1)C21CCN(S(=O)(=O)c2cccc(F)c2)CC1 [US20250313563, Compound 901466]",< 0.1 µM,< 0.1 µM
"Cn1cc(S(=O)(=O)N2CCC3(CC2)C2=C(N=NC2)NC2=C3C(=O)CC(C)(C)C2)cn1 [US20250313563, Compound 901467]",< 0.1 µM and 0.1 to 1 µM,< 0.1 µM and 1 to 5 µM
